Entries after “also recorded” stand apart in the source; their conditions may differ.
Key:
[1] = molecular target: T1, NMDA receptor glycine site (Rattus norvegicus, UniProt P35439); test: [^3H]glycine competition binding, rat forebrain membranes; settings: radioligand [^3H]-glycine
T1 construct: from tissue; host or cells: Wistar rat forebrain synaptic membranes

[2] = molecular target: T2, Dopaminergic receptor (D1) (Rattus norvegicus, UniProt P18901); test: [^3H]SCH23390 competition binding, rat striatum membranes; settings: radioligand [^3H]-SCH23390
T2 construct: from tissue; host or cells: Wistar rat brain synaptic membranes (striatum according to the earlier reading)

AMPA receptor = test: [^3H]AMPA competition binding, rat forebrain membranes; settings: radioligand [^3H]-AMPA
Kaïnate receptor = type: binding, rat
[3] = molecular target: T3, Dopaminergic receptor (D2) (Rattus norvegicus, UniProt P61169); test: [^3H]raclopride competition binding, rat striatum membranes; settings: radioligand [^3H]-raclopride
T3 construct: from tissue; host or cells: Wistar rat brain synaptic membranes (striatum according to the earlier reading)

NMDA PCP site = molecular target: T4, NMDA PCP site (Rattus norvegicus, UniProt P35439); test: [^3H]TCP radioligand competition binding on rat brain membranes; settings: for IC50: inhibition of [^3H]TCP binding
T4 construct: from tissue; host or cells: Wistar rat hippocampus, frontal cortex or forebrain synaptic membranes

[4] = read-out: IC50 ± SEM ([^19F]FNM inhibition)

T3 sequence (P61169 whole entry): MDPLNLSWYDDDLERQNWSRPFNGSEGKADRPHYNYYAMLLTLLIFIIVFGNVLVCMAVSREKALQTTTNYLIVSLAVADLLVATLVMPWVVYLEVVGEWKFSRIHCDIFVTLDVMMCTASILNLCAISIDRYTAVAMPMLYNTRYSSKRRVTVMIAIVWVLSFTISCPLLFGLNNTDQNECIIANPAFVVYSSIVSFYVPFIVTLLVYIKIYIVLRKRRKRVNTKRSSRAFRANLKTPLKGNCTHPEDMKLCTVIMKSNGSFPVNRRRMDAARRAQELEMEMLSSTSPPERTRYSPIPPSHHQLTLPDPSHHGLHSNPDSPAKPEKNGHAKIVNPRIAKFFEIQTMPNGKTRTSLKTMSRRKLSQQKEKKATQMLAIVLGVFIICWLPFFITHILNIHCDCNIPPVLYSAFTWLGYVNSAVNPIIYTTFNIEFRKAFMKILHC
T2 sequence (P18901 whole entry): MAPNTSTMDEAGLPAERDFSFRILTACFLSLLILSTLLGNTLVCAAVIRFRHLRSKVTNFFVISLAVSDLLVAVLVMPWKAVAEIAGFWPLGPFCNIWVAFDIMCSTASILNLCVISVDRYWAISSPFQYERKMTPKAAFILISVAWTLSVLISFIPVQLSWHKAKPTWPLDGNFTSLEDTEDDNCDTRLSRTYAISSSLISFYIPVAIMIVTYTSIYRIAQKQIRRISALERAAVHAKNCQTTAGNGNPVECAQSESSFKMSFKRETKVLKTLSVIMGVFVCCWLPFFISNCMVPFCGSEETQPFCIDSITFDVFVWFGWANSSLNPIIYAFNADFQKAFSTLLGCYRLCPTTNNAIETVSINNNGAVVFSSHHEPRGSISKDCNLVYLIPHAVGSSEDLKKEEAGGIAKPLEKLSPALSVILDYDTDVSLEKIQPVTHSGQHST

## Fluoroethylnormemantine [[^19F]FNM]
[1]
  IC50 ± SEM ([^19F]FNM inhibition): did not displace; also recorded: No inhibition
[2]
  IC50 ± SEM ([^19F]FNM inhibition): did not displace
[2]; [4]
  IC50: > 1000 µM
AMPA receptor
  IC50 ± SEM ([^19F]FNM inhibition): did not displace; also recorded: No inhibition
Kaïnate receptor
  IC50 ± SEM ([^19F]FNM inhibition): did not displace; also recorded: No inhibition
[3]
  IC50 ± SEM ([^19F]FNM inhibition): did not displace
[3]; [4]
  IC50: > 1000 µM
NMDA PCP site; in the forebrain
  selectivity for the NMDA receptor ion-channel compared to the other targets examined: at least sevenfold
NMDA PCP site; rat forebrain
  IC50: 13 ± 8.9 µM
NMDA PCP site; rat frontal cortex
  IC50: 80.8 ± 15.1 µM
NMDA PCP site; rat hippocampus
  IC50: 52.9 ± 9.7 µM

Reference: publication PMC10333392 (Molecular Imaging and Biology, 2023)
